According to ChEMBL document CHEMBL1201862, “PubChem BioAssay data set” (2004):
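Growth conditions: 96-well plates. Treatment: test compound, 48 hours, 5 concentrations. Analysis: linear interpolation between bracketing concentrations; unreached endpoints set to highest concentration. GI50 marks 50% less growth.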 Calls of active or inactive are those of the source. No stated cut-off is given here; in the data, active = GI50 up to about 1.1 µM and inactive = higher.

Key:
Assay in all cases: NCI tumour cell line growth inhibition, 48 h
RPMI-8226 = test system: RPMI-8226
RXF 393 = test system: RXF 393
SK-MEL-5 = test system: SK-MEL-5
SF-295 = test system: SF-295
CAKI-1 = test system: CAKI-1
HCT-116 = test system: HCT-116
LOX IMVI = test system: LOX IMVI
MDA-N = test system: MDA-N
COLO 205 = test system: COLO 205
UO-31 = test system: UO-31
ACHN = test system: ACHN
SNB-75 = test system: SNB-75
HOP-62 = test system: HOP-62
Hs-578T = test system: Hs-578T
HCT-15 = test system: HCT-15
UACC-62 = test system: UACC-62
NCI-H522 = test system: NCI-H522
NCI/ADR-RES = test system: NCI/ADR-RES
SNB-19 = test system: SNB-19
A498 = test system: A498

SMILES	GI50 (RPMI-8226)	GI50 (RXF 393)	GI50 (SK-MEL-5)	GI50 (SF-295)	GI50 (CAKI-1)	GI50 (HCT-116)	GI50 (LOX IMVI)	GI50 (MDA-N)	GI50 (COLO 205)	GI50 (UO-31)	GI50 (ACHN)	GI50 (SNB-75)	GI50 (HOP-62)	GI50 (Hs-578T)	GI50 (HCT-15)	GI50 (UACC-62)	GI50 (NCI-H522)	GI50 (NCI/ADR-RES)	GI50 (SNB-19)	GI50 (A498)
C=CC(C)(O)CCC1C(=C)C(O)CC2C(C)(C)CCCC12C (stereo not given)	20 µM (inactive)	14.3 µM (inactive)	16 µM (inactive)	21.1 µM (inactive)	23.5 µM (inactive)	17.9 µM (inactive)	19.2 µM (inactive)	20.4 µM (inactive)	16 µM (inactive)	15.2 µM (inactive)	26 µM (inactive)	48.3 µM (inactive)	20.6 µM (inactive)	22.6 µM (inactive)	17.6 µM	16 µM (inactive)	17.6 µM (inactive)	18.5 µM (inactive)	18.1 µM (inactive)	18.3 µM (inactive)
N#CC(NNC(=O)Cc1ccccc1)c1ccccc1O (stereo not given)	6.87 µM (inactive)	24.7 µM (inactive)	10.6 µM (inactive)	9.68 µM (inactive)	12.6 µM (inactive)	7.26 µM (inactive)	4.98 µM (inactive)	19.4 µM (inactive)	12.1 µM (inactive)	4.54 µM (inactive)	6.56 µM (inactive)	21.3 µM (inactive)	15.8 µM (inactive)	56.2 µM (inactive)	4.25 µM	5.28 µM (inactive)	4.88 µM (inactive)	3.93 µM (inactive)	21.3 µM (inactive)	> 48.9 µM (inactive)
C=C(Br)C[N+]12CN3CN(CN(C3)C1)C2	> 100 µM (inactive)	> 100 µM (inactive)	> 100 µM (inactive)	> 100 µM (inactive)	> 100 µM (inactive)	> 100 µM (inactive)	> 100 µM (inactive)	> 100 µM (inactive)	> 100 µM (inactive)	> 100 µM (inactive)	> 100 µM (inactive)	> 100 µM (inactive)	> 100 µM (inactive)	> 100 µM (inactive)	> 100 µM	> 100 µM (inactive)	> 100 µM (inactive)	> 100 µM (inactive)	> 100 µM (inactive)	> 100 µM (inactive)
NS(=O)(=O)c1ccc(N=C2C(=O)Nc3ccccc32)cc1	> 100 µM (inactive)	> 100 µM (inactive)	36.8 µM (inactive)	> 100 µM (inactive)	> 100 µM (inactive)	> 100 µM (inactive)	57.7 µM (inactive)	> 100 µM (inactive)	13.1 µM (inactive)	> 100 µM (inactive)	> 100 µM (inactive)	> 100 µM (inactive)	> 100 µM (inactive)	> 100 µM (inactive)	> 100 µM	> 100 µM (inactive)	70.8 µM (inactive)	> 100 µM (inactive)	> 100 µM (inactive)	> 100 µM (inactive)
CN(C)CCNC1=CC(=O)c2c(O)ccc(O)c2C1=O	7.52 µM (inactive)	14.2 µM (inactive)	1.67 µM (inactive)	11.4 µM (inactive)	13.9 µM (inactive)	2.8 µM (inactive)	3.39 µM (inactive)	1.97 µM (inactive)	1.9 µM (inactive)	12.4 µM (inactive)	11.5 µM (inactive)	17.1 µM (inactive)	16.3 µM (inactive)	23.1 µM (inactive)	4.08 µM	2.33 µM (inactive)	3.73 µM (inactive)	2.58 µM (inactive)	16 µM (inactive)	14.8 µM (inactive)
CC(C)(C)c1ccc(-c2nc3ccc(Cl)cc3c(=O)o2)cc1	19.6 µM (inactive)	39.1 µM (inactive)	12.8 µM (inactive)	13 µM (inactive)	25.4 µM (inactive)	15.6 µM (inactive)	15.4 µM (inactive)	25.2 µM (inactive)	17.7 µM (inactive)	21.2 µM (inactive)	14.1 µM (inactive)	26.8 µM (inactive)	20.9 µM (inactive)	30.5 µM (inactive)	13.9 µM	18.8 µM (inactive)	12.7 µM (inactive)	22.7 µM (inactive)	14.5 µM (inactive)	23.4 µM (inactive)
Cc1ccc(NC(S)=Nc2c(C)n(C)n(-c3ccccc3)c2=O)cc1	> 100 µM (inactive)	> 100 µM (inactive)	> 100 µM (inactive)	> 100 µM (inactive)	> 100 µM (inactive)	> 100 µM (inactive)	> 100 µM (inactive)	> 100 µM (inactive)	> 100 µM (inactive)	> 100 µM (inactive)	> 100 µM (inactive)	> 100 µM (inactive)	> 100 µM (inactive)	> 100 µM (inactive)	> 100 µM	> 100 µM (inactive)	> 100 µM (inactive)	> 100 µM (inactive)	> 100 µM (inactive)	> 100 µM (inactive)
OC1COC(n2c3ccc(Br)cc3c3ccc4c5ccccc5[nH]c4c32)C(O)C1O (stereo not given)	3.52 µM (inactive)	1.76 µM (inactive)	2.26 µM (inactive)	0.538 µM (active)	3.13 µM (inactive)	3.55 µM (inactive)	2.31 µM (inactive)	4.4 µM (inactive)	1.89 µM (inactive)	2.82 µM (inactive)	2.84 µM (inactive)	3.24 µM (inactive)	3.64 µM (inactive)	3.18 µM (inactive)	3.37 µM	0.643 µM (active)	2.82 µM (inactive)	4.07 µM (inactive)	10.7 µM (inactive)	4.3 µM (inactive)
Cc1nc2c(Br)cc(Br)cc2c(=O)n1-c1ccccc1NC1OC(CO)C(O)C(O)C1O (stereo not given)	> 100 µM (inactive)	> 100 µM (inactive)	> 100 µM (inactive)	> 100 µM (inactive)	> 100 µM (inactive)	> 100 µM (inactive)	> 100 µM (inactive)	> 100 µM (inactive)	> 100 µM (inactive)	> 100 µM (inactive)	> 100 µM (inactive)	61.1 µM (inactive)	> 100 µM (inactive)	> 100 µM (inactive)	> 100 µM	> 100 µM (inactive)	> 100 µM (inactive)	> 100 µM (inactive)	> 100 µM (inactive)	> 100 µM (inactive)
NCS(=O)(=O)O	> 100 µM (inactive)	> 100 µM (inactive)	> 100 µM (inactive)	> 100 µM (inactive)	> 100 µM (inactive)	> 100 µM (inactive)	> 100 µM (inactive)	> 100 µM (inactive)	> 100 µM (inactive)	> 100 µM (inactive)	> 100 µM (inactive)	> 100 µM (inactive)	> 100 µM (inactive)	> 100 µM (inactive)	> 100 µM	> 100 µM (inactive)	> 100 µM (inactive)	> 100 µM (inactive)	> 100 µM (inactive)	> 100 µM (inactive)
CC1CC(NN(C)C)C2(C(N)=O)C(N)=NC(=O)C12C#N (stereo not given)	> 100 µM (inactive)	> 100 µM (inactive)	> 100 µM (inactive)	> 100 µM (inactive)	> 100 µM (inactive)	> 100 µM (inactive)	> 100 µM (inactive)	> 100 µM (inactive)	> 100 µM (inactive)	> 100 µM (inactive)	> 100 µM (inactive)	10 µM (inactive)	> 100 µM (inactive)	> 100 µM (inactive)	> 100 µM	> 100 µM (inactive)	> 100 µM (inactive)	> 100 µM (inactive)	> 100 µM (inactive)	> 100 µM (inactive)
O=C(OC1CN2CCC1CC2)N(c1ccccc1)c1ccccc1 (stereo not given)	> 100 µM (inactive)	50.1 µM (inactive)	29.4 µM (inactive)	51.1 µM (inactive)	> 100 µM (inactive)	47.4 µM (inactive)	38.5 µM (inactive)	> 100 µM (inactive)	43.1 µM (inactive)	86.9 µM (inactive)	> 100 µM (inactive)	46.2 µM (inactive)	80.5 µM (inactive)	> 100 µM (inactive)	> 100 µM	65 µM (inactive)	> 100 µM (inactive)	> 100 µM (inactive)	> 100 µM (inactive)	24.7 µM (inactive)
COC(=O)C1CCC(=O)N1CN(C(C)=O)c1cc(OC)ccc1OC (stereo not given)	> 100 µM (inactive)	> 100 µM (inactive)	> 100 µM (inactive)	> 100 µM (inactive)	> 100 µM (inactive)	> 100 µM (inactive)	> 100 µM (inactive)	> 100 µM (inactive)	> 100 µM (inactive)	> 100 µM (inactive)	> 100 µM (inactive)	> 100 µM (inactive)	> 100 µM (inactive)	> 100 µM (inactive)	> 100 µM	> 100 µM (inactive)	> 100 µM (inactive)	> 100 µM (inactive)	> 100 µM (inactive)	> 100 µM (inactive)
